Data set [1] deals with T1, DNA (cytosine-5)-methyltransferase 3A (Homo sapiens, UniProt Q9Y6K1). Kind of data set: Inhibition of human C-terminal DNMT3A at 32 uM after 1 hr by fluorescence assay.
In data set [2] the target is DNA (cytosine-5)-methyltransferase 1 (Homo sapiens) (UniProt P26358). Kind of data set: Inhibition of human His-DNMT1 using [methyl-3H]SAM as substrate at 100 uM after 2 hrs.
The target of data set [3] is T1, DNA (cytosine-5)-methyltransferase 3A. Kind of data set: Inhibition of human C-terminal DNMT3A at 20 uM after 1 hr by fluorescence assay.
Data set [4] concerns the target DNA (cytosine-5)-methyltransferase 1 (Homo sapiens) (UniProt P26358). In words: Inhibition of human His-DNMT1 using [methyl-3H]SAM as substrate at 32 uM after 2 hrs.
Data set [5] has as its target T1, DNA (cytosine-5)-methyltransferase 3A. In words: Inhibition of human C-terminal DNMT3A after 1 hr by fluorescence assay.
Data set [6] can be described thus: Chemical stability of the compound in DMSO by HPLC analysis. The data set is classed as physicochemical.
Data set [7] in a line: Antiproliferative activity against human KG1 cells after 2 to 4 days by ATPlite 1step luminescence assay. It is filed as functional, cell-based. Particulars: KG-1. For orientation: In ATP-based viability assays light output follows the ATP content of the culture.
The subject of data set [8] is HCT-116. Kind of data set: Antiproliferative activity against human HCT116 cells after 2 to 4 days by ATPlite 1step luminescence assay. The data set is classed as functional, cell-based.
Data set [9] is described as follows: Antiproliferative activity against human KARPAS299 cells after 2 to 4 days by ATPlite 1step luminescence assay. The data set is classed as functional, cell-based. Particulars: KARPAS-299.
Data set [10] can be described thus: Chemical stability of the compound after 30 mins by LC-MS analysis in presence of glutathione. The data set is classed as physicochemical. Particulars: 0.5 h.

These results are taken from ChEMBL document CHEMBL3603802, “Design and synthesis of new non nucleoside inhibitors of DNMT3A” (Bioorg Med Chem, 2015).

For orientation: inhibition means the change of the read-out against control, counted positive when it falls. Read a high inhibition as strong suppression. As usually defined, the EC50 is the concentration giving half of the maximal effect. Low readings indicate greater potency, high ones weaker potency.

Sequence of DNA (cytosine-5)-methyltransferase 1 (Homo sapiens) (P26358 whole entry): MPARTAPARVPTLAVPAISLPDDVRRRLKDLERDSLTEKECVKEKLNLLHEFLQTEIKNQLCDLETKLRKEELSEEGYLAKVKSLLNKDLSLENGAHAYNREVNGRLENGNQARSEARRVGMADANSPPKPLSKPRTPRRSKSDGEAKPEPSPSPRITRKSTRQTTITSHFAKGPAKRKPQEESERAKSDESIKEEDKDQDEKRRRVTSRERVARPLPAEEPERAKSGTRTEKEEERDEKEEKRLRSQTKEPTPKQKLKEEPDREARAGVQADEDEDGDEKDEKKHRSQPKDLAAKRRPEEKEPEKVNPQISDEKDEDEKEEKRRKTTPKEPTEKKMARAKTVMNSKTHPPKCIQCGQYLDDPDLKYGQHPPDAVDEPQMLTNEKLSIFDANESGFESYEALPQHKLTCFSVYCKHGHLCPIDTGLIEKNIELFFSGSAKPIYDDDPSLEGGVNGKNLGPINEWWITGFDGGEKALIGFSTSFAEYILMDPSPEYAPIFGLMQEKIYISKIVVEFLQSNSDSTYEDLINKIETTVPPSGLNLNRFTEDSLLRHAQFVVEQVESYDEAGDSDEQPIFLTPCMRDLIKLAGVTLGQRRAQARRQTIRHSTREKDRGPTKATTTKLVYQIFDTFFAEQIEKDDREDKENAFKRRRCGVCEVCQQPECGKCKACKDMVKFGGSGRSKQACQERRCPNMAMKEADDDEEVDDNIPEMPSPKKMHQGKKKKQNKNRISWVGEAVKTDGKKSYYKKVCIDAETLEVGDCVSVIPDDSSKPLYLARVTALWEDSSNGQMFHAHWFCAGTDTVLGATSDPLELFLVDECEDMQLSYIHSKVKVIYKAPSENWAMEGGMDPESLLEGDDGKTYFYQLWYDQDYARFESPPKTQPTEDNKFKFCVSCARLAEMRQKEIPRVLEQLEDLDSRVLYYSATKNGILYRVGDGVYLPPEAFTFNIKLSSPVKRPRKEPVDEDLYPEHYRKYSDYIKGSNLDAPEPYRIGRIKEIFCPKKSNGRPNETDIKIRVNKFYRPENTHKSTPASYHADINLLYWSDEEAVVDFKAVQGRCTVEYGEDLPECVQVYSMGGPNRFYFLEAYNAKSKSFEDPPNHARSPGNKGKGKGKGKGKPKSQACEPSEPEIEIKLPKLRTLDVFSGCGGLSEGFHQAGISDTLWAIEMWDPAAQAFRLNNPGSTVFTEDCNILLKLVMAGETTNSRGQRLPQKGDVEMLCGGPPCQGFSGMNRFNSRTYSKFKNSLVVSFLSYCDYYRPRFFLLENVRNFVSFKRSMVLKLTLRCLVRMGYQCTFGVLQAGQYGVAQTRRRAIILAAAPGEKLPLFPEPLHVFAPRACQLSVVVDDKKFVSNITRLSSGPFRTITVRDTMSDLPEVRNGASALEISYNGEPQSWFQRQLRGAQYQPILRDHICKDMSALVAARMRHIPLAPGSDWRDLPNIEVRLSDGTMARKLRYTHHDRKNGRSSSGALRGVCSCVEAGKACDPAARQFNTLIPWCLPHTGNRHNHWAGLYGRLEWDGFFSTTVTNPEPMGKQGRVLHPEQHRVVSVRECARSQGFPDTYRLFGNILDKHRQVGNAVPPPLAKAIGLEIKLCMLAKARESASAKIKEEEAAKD
T1 sequence (Q9Y6K1 whole entry, looked up): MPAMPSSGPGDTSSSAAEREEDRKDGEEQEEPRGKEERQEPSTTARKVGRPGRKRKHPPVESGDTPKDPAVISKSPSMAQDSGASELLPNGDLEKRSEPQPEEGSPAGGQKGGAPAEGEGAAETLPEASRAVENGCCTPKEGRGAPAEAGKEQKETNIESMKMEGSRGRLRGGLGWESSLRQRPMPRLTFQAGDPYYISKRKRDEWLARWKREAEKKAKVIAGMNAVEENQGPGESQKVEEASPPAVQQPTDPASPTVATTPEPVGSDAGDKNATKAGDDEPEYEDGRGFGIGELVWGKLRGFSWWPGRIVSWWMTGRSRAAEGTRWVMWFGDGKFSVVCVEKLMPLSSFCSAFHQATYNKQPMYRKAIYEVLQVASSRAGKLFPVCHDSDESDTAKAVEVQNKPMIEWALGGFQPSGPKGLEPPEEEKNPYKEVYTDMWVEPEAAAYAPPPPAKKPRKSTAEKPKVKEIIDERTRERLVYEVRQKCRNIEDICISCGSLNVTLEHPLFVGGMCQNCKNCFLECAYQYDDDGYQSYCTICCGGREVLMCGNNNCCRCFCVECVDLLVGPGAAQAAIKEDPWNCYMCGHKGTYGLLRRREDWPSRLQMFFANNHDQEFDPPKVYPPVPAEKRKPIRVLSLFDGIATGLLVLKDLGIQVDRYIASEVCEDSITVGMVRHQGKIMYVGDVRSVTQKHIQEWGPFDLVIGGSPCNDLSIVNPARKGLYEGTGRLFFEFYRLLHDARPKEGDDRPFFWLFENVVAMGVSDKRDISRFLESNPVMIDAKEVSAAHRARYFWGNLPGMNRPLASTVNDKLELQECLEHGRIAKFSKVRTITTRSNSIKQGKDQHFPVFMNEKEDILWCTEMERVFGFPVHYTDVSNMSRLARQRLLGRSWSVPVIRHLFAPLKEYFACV

Compound `O=C(c1ccc(Cl)cc1)C(CSCc1ncccn1)n1cnc2ccccc21` (stereo unspecified) came in with an inhibition in data set [1] of 43%. The compound `CCSCC(C(=O)c1ccccc1)n1cnc2ccccc21` (stereo unspecified) registered an inhibition in data set [1] of 34%. As for `CCSCC(C(=O)c1ccc(Cl)cc1)n1cnc2ccccc21` (stereo unspecified), the inhibition in data set [1] was found to be 45%; in data set [2] it was 22%; in data set [3] it was 70%; in [4], 70%. Moreover, the midpoint of the response in data set [5], the EC50, lay at 3 µM. In addition, the Stability result in data set [6] was “Unstable”. With `CCSCC(C(O)c1ccc(Cl)cc1)n1cnc2ccccc21` (stereo unspecified), in data set [3], the inhibition was found to be 4%. On to `O=C(c1ccc(Cl)cc1)C(CSC1CCCCC1)n1cnc2ccccc21` (stereo unspecified), for which the inhibition in data set [3] amounted to 44%. As for `CCSCC(C(=O)c1ccc(Cl)c(Cl)c1)n1cnc2ccccc21` (stereo unspecified), the concentration giving a half-maximal response (EC50) is 3.7 µM in data set [7], 3.1 µM in data set [8] and above 10 µM in data set [9]. This compound returned an inhibition in data set [1] of 38%.

As to `C=C(C(=O)c1ccc(Cl)cc1)n1cnc2ccccc21`, the inhibition in [1] turned out to be 81%. Also, the Stability entry in data set [10] is “Unstable”. Besides, the half-maximal effective concentration (EC50) in data set [5] turned out to be 4 µM. In turn, `CCSCC(Cn1cccn1)C(=O)c1ccc(Cl)cc1` (stereo unspecified) showed an inhibition in [3] of 18%.

As to `O=C(c1ccc(Cl)cc1)C(CSc1ncc[nH]1)n1cnc2ccccc21` (stereo unspecified), the inhibition in data set [1] worked out at 38%. In turn, `CC(C)(C)SCC(C(=O)c1ccc(Cl)cc1)n1cnc2ccccc21` (stereo unspecified) registered an inhibition in data set [3] of 40%.

With `O=C(/C(=C/C=C/c1ccccc1)n1cnc2ccccc21)c1ccc(Cl)cc1`, the inhibition in data set [1] was 0%. Moreover, the Stability entry in data set [6] was “Stable”. For `CCOCC(C(=O)c1ccc(Cl)cc1)n1cnc2ncnc(N)c21` (stereo unspecified), the inhibition came out at 70% in data set [1] and 29% in [2]. In [5], the half-maximal effective concentration (EC50) worked out at 2.1 µM. The Stability entry in data set [6] is on record as “Unstable”. `CCSCC(Cn1cnc2ccccc21)C(=O)c1ccc(Cl)cc1` (stereo unspecified) registered an inhibition in data set [3] of 23%. Regarding `O=C(c1ccc(Cl)cc1)C(CSCc1cccc([N+](=O)[O-])c1)n1cnc2ccccc21` (stereo unspecified), the inhibition in [1] is 40%. On the same count and under the same terms, to `CCOCC(C(=O)c1ccc(Cl)cc1)n1cnc2ccccc21` (stereo unspecified) belongs 63%. As to `CCSCC(Cn1ccnc1)C(=O)c1ccc(Cl)cc1` (stereo unspecified), the inhibition in data set [3] was determined as 9%. As to `CCSCC(C(=O)c1ccc(Cl)cc1)n1cnc2c(N)ncnc21` (stereo unspecified), the inhibition in data set [1] stood at 0%. `O=C(c1ccc(Cl)cc1)C(SC1CCCCC1)n1cnc2ccccc21` (stereo unspecified) yielded an inhibition in data set [3] of 21%. In data set [3], `CCSCC(C(OC)c1ccc(Cl)cc1)n1cnc2ccccc21` (stereo unspecified) came in with an inhibition of 5%. Still for that read-out and setting: next, `CCSCC(C(=O)c1ccc(Cl)cc1)n1cccn1` (stereo unspecified): 17%. In the case of `CC(C)SC(C(=O)c1ccc(Cl)cc1)n1cnc2ccccc21` (stereo unspecified), the inhibition in data set [3] is 5%. On to `CCSCC(C(=O)c1ccc(Cl)cc1)n1cnc2ncnc(N)c21` (stereo unspecified), for which the inhibition in data set [1] was determined as 54%. Take `CCSC(C(=O)c1ccc(Cl)cc1)n1cnc2ccccc21` (stereo unspecified): the inhibition in data set [3] came to 15%. `Cc1cc(Nc2ccc(NC(=O)c3ccc(Nc4ccnc5ccccc45)cc3)cc2)nc(N)n1`: the EC50 was 4.4 µM in data set [7], above 10 µM in [8] and 1.8 µM in data set [9]. In data set [1], `O=C(Cn1cnc2ccccc21)c1ccc(Cl)cc1` registered an inhibition of 12%. Regarding `CC(C)SCC(C(=O)c1ccc(Cl)cc1)n1cnc2ccccc21` (stereo unspecified), in data set [3], the inhibition came out at 43%. Turning to `O=C(c1ccc(Cl)cc1)C(CSCc1ccco1)n1cnc2ccccc21` (stereo unspecified), in data set [1], the inhibition was determined as 55%. In [3], `CCSCC(C(=O)c1ccc(Cl)cc1)n1ccnc1` (stereo unspecified) had an inhibition of 43%. On to `CC(C)(C)SC(C(=O)c1ccc(Cl)cc1)n1cnc2ccccc21` (stereo unspecified), for which the inhibition in data set [3] came to 10%.

Consider `O=C(c1ccc(Cl)cc1)C(CSCc1ccccc1)n1cnc2ccccc21` (stereo unspecified), for which the inhibition in data set [1] was found to be 25%; in data set [3], 69%. Turning to `CCOC(c1ccc(Cl)cc1)C(CSCC)n1cnc2ccccc21` (stereo unspecified), the inhibition in data set [3] came to 9%. Regarding `CN(C)/C=C(/C(=O)c1ccc(Cl)cc1)n1cnc2ccccc21`, the inhibition in data set [1] came out at 0%. In data set [6], the Stability entry is on record as “Stable”. `CCSCC(C(=O)c1ccc(OC)cc1)n1cnc2ccccc21` (stereo unspecified): the EC50 in [7], in [8] and in data set [9] was above 10 µM each time. The same compound came in with an inhibition in data set [1] of 0%. Compound `COc1ccc(CSCC(C(=O)c2ccc(Cl)cc2)n2cnc3ccccc32)cc1` (stereo unspecified) registered an inhibition in data set [1] of 34%. Still for that read-out and setting: next, `O=C(c1ccc(Cl)cc1)C(CSCC1CCCC1)n1cnc2ccccc21` (stereo unspecified): 36%.
